Data from ChEMBL document CHEMBL1201861, “Genomics of Drug Sensitity in Cancer screening data, Wellcome Trust Sanger Institute”.

Legend:
Experiment in all cases: cells
DSH1 = type: functional, cell-based; details: Homo sapiens;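 further: growth inhibition of human DSH1 cells, measured with a cell viability readout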
Description: SANGER: Inhibition of human DSH1 cell growth in a cell viability assay.

ES1 = type: functional, cell-based, Homo sapiens; details: Homo sapiens, ES1
Description: SANGER: Inhibition of human ES1 cell growth in a cell viability assay.

ES3 = type: functional, cell-based, Homo sapiens; details: Homo sapiens, ES3;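 further: growth inhibition of ES3 cells, read out with a cell viability assay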
Description: SANGER: Inhibition of human ES3 cell growth in a cell viability assay.

EW-18 = type: functional, cell-based, Homo sapiens; details: Homo sapiens, EW-18; read-out: IC50;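 further: growth inhibition of EW-18 cells, read out by a cell viability assay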
Description: SANGER: Inhibition of human EW-18 cell growth in a cell viability assay.

EOL1 = type: functional, cell-based, Homo sapiens; details: Homo sapiens, EOL1;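 further: growth inhibition of EoL-1 cells, read out by a cell viability assay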
Description: SANGER: Inhibition of human EoL-1-cell cell growth in a cell viability assay.

GI-1 = type: functional, cell-based, Homo sapiens; details: Homo sapiens, GI-1;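 further: growth inhibition of human GI-1 cells, measured with a cell viability readout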
Description: SANGER: Inhibition of human GI-1 cell growth in a cell viability assay.

HAL-01 = type: functional, cell-based, Homo sapiens; details: Homo sapiens, HAL-01;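 further: growth inhibition of human HAL-01 cells, read out with a cell viability assay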
Description: SANGER: Inhibition of human HAL-01 cell growth in a cell viability assay.

HD-MY-Z = type: functional, cell-based, Homo sapiens; details: Homo sapiens, HD-MY-Z;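 further: growth inhibition of HD-MY-Z cells, read out with a cell viability assay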
Description: SANGER: Inhibition of human HD-MY-Z cell growth in a cell viability assay.

IA-LM = type: functional, cell-based; details: Homo sapiens;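 further: cell viability assay measuring growth inhibition of human IA-LM cells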
Description: SANGER: Inhibition of human IA-LM cell growth in a cell viability assay.

IST-MES1 = type: functional, cell-based, Homo sapiens; details: Homo sapiens, IST-MES1;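 further: growth inhibition of IST-MES1 cells, measured with a cell viability assay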
Description: SANGER: Inhibition of human IST-MES1 cell growth in a cell viability assay.

JAR = type: functional, cell-based, Homo sapiens; details: Homo sapiens, JAR;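 further: growth inhibition of human JAR cells determined with a cell viability assay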
Description: SANGER: Inhibition of human JAR cell growth in a cell viability assay.

KE-37 = type: functional, cell-based, Homo sapiens; details: Homo sapiens, KE-37;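 further: growth inhibition of KE-37 cells, read out with a cell viability assay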
Description: SANGER: Inhibition of human KE-37 cell growth in a cell viability assay.

KG-1 = type: functional, cell-based, Homo sapiens; details: Homo sapiens, KG-1;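 further: growth inhibition of KG-1 cells, read out by a cell viability assay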
Description: SANGER: Inhibition of human KG-1 cell growth in a cell viability assay.

KLE = type: functional, cell-based; details: Homo sapiens;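 further: growth inhibition of human KLE cells, read out with a cell viability assay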
Description: SANGER: Inhibition of human KLE cell growth in a cell viability assay.

KM12 = type: functional, cell-based, Homo sapiens; details: Homo sapiens, KM12;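 further: KM12 cell growth inhibition, read out with a cell viability assay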
Description: SANGER: Inhibition of human KM12 cell growth in a cell viability assay.

L-363 = type: functional, cell-based, Homo sapiens; details: Homo sapiens, L-363
Description: SANGER: Inhibition of human L-363 cell growth in a cell viability assay.

LAMA-84 = type: functional, cell-based, Homo sapiens; details: Homo sapiens, LAMA-84;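 further: growth inhibition of LAMA-84 cells, read out with a cell viability assay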
Description: SANGER: Inhibition of human LAMA-84 cell growth in a cell viability assay.

LOX IMVI = type: functional, cell-based, Homo sapiens; details: Homo sapiens, LOX IMVI
Description: SANGER: Inhibition of human LOXIMVI cell growth in a cell viability assay.

LS-513 = type: functional, cell-based, Homo sapiens; details: Homo sapiens, LS-513
Description: SANGER: Inhibition of human LS-513 cell growth in a cell viability assay.

Lu-65 = type: functional, cell-based, Homo sapiens; details: Homo sapiens, Lu-65;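 further: growth inhibition of Lu-65 cancer cells, read out by a cell viability assay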
Description: SANGER: Inhibition of human LU-65 cell growth in a cell viability assay.

MFM-223 = type: functional, cell-based, Homo sapiens; details: Homo sapiens, MFM-223
Description: SANGER: Inhibition of human MFM-223 cell growth in a cell viability assay.

MLMA = type: functional, cell-based, Homo sapiens; details: Homo sapiens, MLMA;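 further: growth inhibition of MLMA cells (human), determined through a cell viability readout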
Description: SANGER: Inhibition of human MLMA cell growth in a cell viability assay.

MOLT-4 = type: functional, cell-based, Homo sapiens; details: Homo sapiens, MOLT-4;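 further: growth inhibition of MOLT-4 cells, determined with a cell viability readout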
Description: SANGER: Inhibition of human MOLT-4 cell growth in a cell viability assay.

MPP-89 = type: functional, cell-based, Homo sapiens; details: Homo sapiens, MPP-89;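 further: growth inhibition of human MPP-89 cells, read out with a cell viability assay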
Description: SANGER: Inhibition of human MPP-89 cell growth in a cell viability assay.

MZ7-mel = type: functional, cell-based, Homo sapiens; details: Homo sapiens, MZ7-mel;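 further: growth inhibition of human MZ7-mel cells, measured by a cell viability assay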
Description: SANGER: Inhibition of human MZ7-mel cell growth in a cell viability assay.

NB13 = type: functional, cell-based, Homo sapiens; details: Homo sapiens, NB13;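 further: cell viability readout measuring growth inhibition of human NB13 cells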
Description: SANGER: Inhibition of human NB13 cell growth in a cell viability assay.

NCI-H1838 = type: functional, cell-based, Homo sapiens; details: Homo sapiens, NCI-H1838;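 further: growth inhibition of NCI-H1838 cells, determined with a cell viability readout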
Description: SANGER: Inhibition of human NCI-H1838 cell growth in a cell viability assay.

NCI-H226 = type: functional, cell-based, Homo sapiens; details: Homo sapiens, NCI-H226;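 further: cell viability read-out used to gauge growth inhibition of the cells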
Description: SANGER: Inhibition of human NCI-H226 cell growth in a cell viability assay.

NCI-H23 = type: functional, cell-based, Homo sapiens; details: Homo sapiens, NCI-H23;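 further: cell viability assay measuring growth inhibition of NCI-H23 cells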
Description: SANGER: Inhibition of human NCI-H23 cell growth in a cell viability assay.

NH-12 = type: functional, cell-based, Homo sapiens; details: Homo sapiens, NH-12;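 further: growth inhibition of NH-12 cells, read out with a cell viability assay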
Description: SANGER: Inhibition of human NH-12 cell growth in a cell viability assay.

QIMR-WIL = type: functional, cell-based, Homo sapiens; details: Homo sapiens, QIMR-WIL;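 further: growth inhibition of QIMR-WIL cells, read out with a cell viability assay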
Description: SANGER: Inhibition of human QIMR-WIL cell growth in a cell viability assay.

RH-1 = type: functional, cell-based, Homo sapiens; details: Homo sapiens, RH-1;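 further: growth inhibition of human RH-1 cells, read out with a cell viability assay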
Description: SANGER: Inhibition of human RH-1 cell growth in a cell viability assay.

SF-126 = type: functional, cell-based, Homo sapiens; details: Homo sapiens, SF-126;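 further: growth inhibition of human SF126 cells, read out with a cell viability assay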
Description: SANGER: Inhibition of human SF126 cell growth in a cell viability assay.

SHP77 = type: functional, cell-based, Homo sapiens, SHP-77; details: Homo sapiens, SHP77;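 further: growth inhibition of human SHP-77 cells measured by a cell viability assay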
Description: SANGER: Inhibition of human SHP-77 cell growth in a cell viability assay.

SJSA-1 = type: functional, cell-based, Homo sapiens; details: Homo sapiens, SJSA-1;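 further: growth inhibition of human SJSA-1 cells, read out through a cell viability measurement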
Description: SANGER: Inhibition of human SJSA-1 cell growth in a cell viability assay.

SK-LMS-1 = type: functional, cell-based, Homo sapiens; details: Homo sapiens, SK-LMS-1;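 further: growth inhibition of human SK-LMS-1 cells, read out with a cell viability assay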
Description: SANGER: Inhibition of human SK-LMS-1 cell growth in a cell viability assay.

SK-N-DZ = type: functional, cell-based, Homo sapiens; details: Homo sapiens, SK-N-DZ; read-out: IC50;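 further: growth inhibition of the cancer cell line, read out through a viability assay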
Description: SANGER: Inhibition of human SK-N-DZ cell growth in a cell viability assay.

SK-PN-DW = type: functional, cell-based, Homo sapiens; details: Homo sapiens, SK-PN-DW;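 further: growth inhibition measured with a viability assay on these cells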
Description: SANGER: Inhibition of human SK-PN-DW cell growth in a cell viability assay.

SW684 = type: functional, cell-based, Homo sapiens; details: Homo sapiens, SW684; read-out: IC50;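 further: growth inhibition of human SW684 cells, measured by a cell viability assay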
Description: SANGER: Inhibition of human SW684 cell growth in a cell viability assay.

SW 962 = type: functional, cell-based, Homo sapiens; details: Homo sapiens, SW 962;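 further: growth inhibition of human SW962 cells, read out by a cell viability assay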
Description: SANGER: Inhibition of human SW962 cell growth in a cell viability assay.

TE-1 = type: functional, cell-based, Homo sapiens; details: Homo sapiens, TE-1;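 further: growth inhibition of the human TE-1 cell line, read out with a cell viability assay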
Description: SANGER: Inhibition of human TE-1 cell growth in a cell viability assay.

A101D = type: functional, cell-based, Homo sapiens; details: Homo sapiens, A101D;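 further: growth inhibition of the cell line, measured with a viability assay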
Description: SANGER: Inhibition of human A101D cell growth in a cell viability assay.

A253 cell line = type: functional, cell-based, Homo sapiens; details: Homo sapiens, A253;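 further: growth inhibition of A253 cells, read out with a cell viability assay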
Description: SANGER: Inhibition of human A253 cell growth in a cell viability assay.

ACN = type: functional, cell-based, Homo sapiens; details: Homo sapiens, ACN;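 further: growth inhibition of the human ACN cell line, read out via cell viability testing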
Description: SANGER: Inhibition of human ACN cell growth in a cell viability assay.

AM-38 = type: functional, cell-based, Homo sapiens; details: Homo sapiens, AM-38;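 further: growth inhibition of AM-38 cells of human origin, read out by a cell viability assay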
Description: SANGER: Inhibition of human AM-38 cell growth in a cell viability assay.

BE-13 = type: functional, cell-based, Homo sapiens; details: Homo sapiens, BE-13;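 further: growth inhibition of human BE-13 cells, measured with a cell viability assay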
Description: SANGER: Inhibition of human BE-13 cell growth in a cell viability assay.

BV-173 = type: functional, cell-based, Homo sapiens; details: Homo sapiens, BV-173
Description: SANGER: Inhibition of human BV-173 cell growth in a cell viability assay.

C2BBe1 = type: functional, cell-based, Homo sapiens; details: Homo sapiens, C2BBe1;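 further: growth inhibition of C2BBe1 cells, read out through a viability assay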
Description: SANGER: Inhibition of human C2BBe1 cell growth in a cell viability assay.

TE-5 = type: functional, cell-based, Homo sapiens; details: Homo sapiens, TE-5;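 further: inhibition of cell growth, read out by a cell viability assay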
Description: SANGER: Inhibition of human TE-5 cell growth in a cell viability assay.

CCRF-CEM = type: functional, cell-based, Homo sapiens; details: Homo sapiens, CCRF-CEM;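 further: inhibition of CCRF-CEM cell growth, measured by a cell viability assay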
Description: SANGER: Inhibition of human CCRF-CEM cell growth in a cell viability assay.

Molecule C/C(=C\c1csc(C)n1)[C@@H]1C[C@@H]2O[C@]2(C)CCC[C@H](C)[C@H](O)[C@@H](C)C(=O)C(C)(C)[C@@H](O)CC(=O)O1 [PATUPILONE] has an IC50 (DSH1) greater than 32 nM, an IC50 (ES1) of 0.221 nM and an IC50 (ES3) of 15 nM. The IC50 (EW-18) was 2.63 nM, the IC50 (EOL1) was 12.9 nM and the IC50 (GI-1) was 2.43 nM. The IC50 (HAL-01) was 5.02 nM, the IC50 (HD-MY-Z) was 23.3 nM and the IC50 (IA-LM) was 0.393 nM. For the same molecule, the IC50 (IST-MES1) was greater than 32 nM, the IC50 (JAR) was greater than 32 nM and the IC50 (KE-37) was 1.91 nM. The IC50 (KG-1) was 5.1 nM, the IC50 (KLE) was greater than 32 nM and the IC50 (KM12) was 2.24 nM. For the same molecule, the IC50 (L-363) was 5.88 nM, the IC50 (LAMA-84) was 18.9 nM and the IC50 (LOX IMVI) was greater than 32 nM. For the same molecule, the IC50 (LS-513) was greater than 32 nM, the IC50 (Lu-65) was 21 nM and the IC50 (MFM-223) was greater than 32 nM. For the same molecule, the IC50 (MLMA) was 14.1 nM, the IC50 (MOLT-4) was 2.52 nM and the IC50 (MPP-89) was 8.29 nM. For the same molecule, the IC50 (MZ7-mel) was 17.1 nM, the IC50 (NB13) was 0.447 nM and the IC50 (NCI-H1838) was greater than 32 nM. It also gave an IC50 (NCI-H226) greater than 32 nM, an IC50 (NCI-H23) of 23.8 nM and an IC50 (NH-12) of 0.891 nM. For the same molecule, the IC50 (QIMR-WIL) was 1.19 nM, the IC50 (RH-1) was 0.997 nM and the IC50 (SF-126) was 3.47 nM. It also gave an IC50 (SHP77) of 4.92 nM, an IC50 (SJSA-1) of 2.09 nM and an IC50 (SK-LMS-1) of 0.646 nM. The IC50 (SK-N-DZ) was 7.59 nM, the IC50 (SK-PN-DW) was 1.06 nM and the IC50 (SW684) was greater than 32 nM. It also gave an IC50 (SW 962) of 1.04 nM, an IC50 (TE-1) of 2.02 nM and an IC50 (A101D) of 0.856 nM. The IC50 (A253 cell line) was 10.3 nM, the IC50 (ACN) was 1.07 nM and the IC50 (AM-38) was 7.56 nM. The IC50 (BE-13) was 7.3 nM, the IC50 (BV-173) was greater than 32 nM and the IC50 (C2BBe1) was greater than 32 nM. For the same molecule, the IC50 (TE-5) was 3.04 nM and the IC50 (CCRF-CEM) was 2.94 nM.

With NC(=O)c1cccc(-c2cc(Nc3ccc(OC(F)(F)F)cc3)ncn2)c1 the IC50 (DSH1) was greater than 1280 nM, the IC50 (ES1) was greater than 1280 nM and the IC50 (ES3) was greater than 1280 nM. It also gave an IC50 (EW-18) greater than 1280 nM, an IC50 (EOL1) greater than 1280 nM and an IC50 (GI-1) greater than 1280 nM. It also gave an IC50 (HAL-01) greater than 1280 nM, an IC50 (HD-MY-Z) greater than 1280 nM and an IC50 (IA-LM) greater than 1280 nM. It also gave an IC50 (IST-MES1) greater than 1280 nM, an IC50 (JAR) greater than 1280 nM and an IC50 (KE-37) greater than 1280 nM. For the same molecule, the IC50 (KG-1) was greater than 1280 nM, the IC50 (KLE) was greater than 1280 nM and the IC50 (KM12) was greater than 1280 nM. It also gave an IC50 (L-363) greater than 1280 nM, an IC50 (LAMA-84) of 163 nM and an IC50 (LOX IMVI) greater than 1280 nM. For the same molecule, the IC50 (LS-513) was greater than 1280 nM, the IC50 (Lu-65) was greater than 1280 nM and the IC50 (MFM-223) was greater than 1280 nM. For the same molecule, the IC50 (MLMA) was greater than 1280 nM, the IC50 (MOLT-4) was greater than 1280 nM and the IC50 (MPP-89) was greater than 1280 nM. For the same molecule, the IC50 (MZ7-mel) was greater than 1280 nM, the IC50 (NB13) was greater than 1280 nM and the IC50 (NCI-H1838) was greater than 1280 nM. For the same molecule, the IC50 (NCI-H226) was greater than 1280 nM, the IC50 (NCI-H23) was greater than 1280 nM and the IC50 (NH-12) was greater than 1280 nM. For the same molecule, the IC50 (QIMR-WIL) was greater than 1280 nM, the IC50 (RH-1) was greater than 1280 nM and the IC50 (SF-126) was greater than 1280 nM. The IC50 (SHP77) was greater than 1280 nM, the IC50 (SJSA-1) was greater than 1280 nM and the IC50 (SK-LMS-1) was greater than 1280 nM. It also gave an IC50 (SK-N-DZ) greater than 1280 nM, an IC50 (SK-PN-DW) greater than 1280 nM and an IC50 (SW684) greater than 1280 nM. It also gave an IC50 (SW 962) greater than 1280 nM, an IC50 (TE-1) greater than 1280 nM and an IC50 (A101D) greater than 1280 nM. It also gave an IC50 (A253 cell line) greater than 1280 nM, an IC50 (ACN) greater than 1280 nM and an IC50 (AM-38) greater than 1280 nM. The IC50 (BE-13) was greater than 1280 nM, the IC50 (BV-173) was 286 nM and the IC50 (C2BBe1) was greater than 1280 nM. It also gave an IC50 (TE-5) greater than 1280 nM and an IC50 (CCRF-CEM) greater than 1280 nM.
